ChEMBL document CHEMBL1136655, “Synthesis of imidazopyridines and purines as potent inhibitors of leukotriene A4 hydrolase” (Bioorg Med Chem Lett, 2003)

Test system: Mus musculus
Assay: Ex vivo inhibition of LTB4 production in mouse whole blood following 10 mg/kg p.o. administration.
Type: functional
Conditions: route oral

SMILES	inhibition in vivo at 10 mg/kg [%]
c1ccc(Cc2ccc(OCCn3cnc4cnccc43)cc2)cc1	64
N#Cc1nccc2c1ncn2CCOc1ccc(Cc2ccccc2)cc1	84
N#Cc1ccc2c(ncn2CCOc2ccc(Cc3ccccc3)cc2)n1	21
Oc1ccc2ncn(CCOc3ccc(Cc4ccccc4)cc3)c2n1	72
c1ccc(Cc2ccc(OCCn3cnc4ncccc43)cc2)cc1	18
c1ccc(Cc2ccc(OCCn3cnc4ccccc43)cc2)cc1	46

Biological target: T1, Leukotriene A-4 hydrolase (Homo sapiens, UniProt P09960)
T1 sequence (P09960 whole entry): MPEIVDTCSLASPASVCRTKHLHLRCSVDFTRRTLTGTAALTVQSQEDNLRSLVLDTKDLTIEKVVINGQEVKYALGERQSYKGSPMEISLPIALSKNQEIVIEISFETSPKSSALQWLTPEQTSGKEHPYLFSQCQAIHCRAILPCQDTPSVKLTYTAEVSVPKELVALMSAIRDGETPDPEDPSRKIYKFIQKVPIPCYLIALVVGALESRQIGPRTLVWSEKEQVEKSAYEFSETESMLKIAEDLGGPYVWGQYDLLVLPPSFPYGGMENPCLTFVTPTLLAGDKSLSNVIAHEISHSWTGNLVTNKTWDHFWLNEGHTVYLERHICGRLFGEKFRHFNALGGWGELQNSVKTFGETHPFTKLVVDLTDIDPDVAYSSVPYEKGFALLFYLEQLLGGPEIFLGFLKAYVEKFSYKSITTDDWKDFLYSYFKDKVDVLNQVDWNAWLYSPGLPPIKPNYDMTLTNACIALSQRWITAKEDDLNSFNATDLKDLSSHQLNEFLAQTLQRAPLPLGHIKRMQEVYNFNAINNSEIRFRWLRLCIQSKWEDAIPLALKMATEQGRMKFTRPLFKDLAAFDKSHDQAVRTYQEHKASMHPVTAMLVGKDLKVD
Assay: In vitro inhibition of recombinant human leukotriene A4 hydrolase.
Conditions: not given

SMILES	IC50 [nM]
N#Cc1nccc2c1ncn2CCOc1ccc(Cc2ccccc2)cc1	31
N#Cc1ccc2c(ncn2CCOc2ccc(Cc3ccccc3)cc2)n1	0.8
c1ccc(Cc2ccc(OCCn3cnc4cccnc43)cc2)cc1	> 3000
Oc1ccc2ncn(CCOc3ccc(Cc4ccccc4)cc3)c2n1	500

Species on record: Homo sapiens
Assay: Inhibition of LTB4 production from whole human blood.
Type: functional
Conditions: not given

IC50 [nM]	SMILES
330	c1ccc(Cc2ccc(OCCn3cnc4cnccc43)cc2)cc1
9150	c1ccc(Cc2ccc(OCCn3cnc4cccnc43)cc2)cc1
940	Oc1ccc2ncn(CCOc3ccc(Cc4ccccc4)cc3)c2n1
330	c1ccc(Cc2ccc(OCCn3cnc4ncccc43)cc2)cc1
690	c1ccc(Cc2ccc(OCCn3cccc4ncnc3-4)cc2)cc1
13200	c1ccc(Cc2ccc(OCCn3cnc4ccccc43)cc2)cc1

SMILES	IC50 [nM]
N#Cc1nccc2c1ncn2CCOc1ccc(Cc2ccccc2)cc1	100
N#Cc1ccc2c(ncn2CCOc2ccc(Cc3ccccc3)cc2)n1	150
